Source: ChEMBL document CHEMBL5338713, “Discovery of pomalidomide-based PROTACs for selective degradation of histone deacetylase 8” (Eur J Med Chem, 2022)
Active and inactive are the calls of the source. No cut-off for these calls is given here.

What was measured:
Type in all cases: cell-based
[1] = biological target: T1, Protein cereblon/Histone deacetylase 8 (Homo sapiens) (UniProt Q9BY41+Q96SW2); assay: PROTAC activity at HDAC8/CRBN in human HCT-116 cells assessed as degradation of HDAC8 at 5 uM measured after 10 hrs in presence of pomalidomide by Western blot analysis
T1 sequence (Q96SW2 whole entry, looked up, one chain of several): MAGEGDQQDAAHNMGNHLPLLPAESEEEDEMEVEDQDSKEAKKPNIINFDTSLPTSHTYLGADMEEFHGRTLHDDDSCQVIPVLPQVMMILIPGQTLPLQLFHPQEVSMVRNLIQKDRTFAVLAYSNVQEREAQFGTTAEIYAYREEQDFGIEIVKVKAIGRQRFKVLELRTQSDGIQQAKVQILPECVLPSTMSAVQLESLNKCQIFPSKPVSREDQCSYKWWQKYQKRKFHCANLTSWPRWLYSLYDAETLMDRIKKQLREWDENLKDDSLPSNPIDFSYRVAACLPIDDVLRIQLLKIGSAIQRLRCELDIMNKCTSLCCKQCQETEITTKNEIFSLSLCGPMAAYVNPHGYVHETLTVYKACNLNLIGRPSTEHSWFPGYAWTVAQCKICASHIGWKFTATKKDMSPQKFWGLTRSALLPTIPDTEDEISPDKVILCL

[2] = biological target: T2, Protein deacetylase HDAC6 (Homo sapiens) (UniProt Q9UBN7); assay: Induction of HDAC6 degradation in human HCT-116 cells assessed as increase in alpha-tubulin acetylation level measured after 10 hrs by Western blot analysis; conditions: dose 0.1-160 µM
T2 sequence (whole entry): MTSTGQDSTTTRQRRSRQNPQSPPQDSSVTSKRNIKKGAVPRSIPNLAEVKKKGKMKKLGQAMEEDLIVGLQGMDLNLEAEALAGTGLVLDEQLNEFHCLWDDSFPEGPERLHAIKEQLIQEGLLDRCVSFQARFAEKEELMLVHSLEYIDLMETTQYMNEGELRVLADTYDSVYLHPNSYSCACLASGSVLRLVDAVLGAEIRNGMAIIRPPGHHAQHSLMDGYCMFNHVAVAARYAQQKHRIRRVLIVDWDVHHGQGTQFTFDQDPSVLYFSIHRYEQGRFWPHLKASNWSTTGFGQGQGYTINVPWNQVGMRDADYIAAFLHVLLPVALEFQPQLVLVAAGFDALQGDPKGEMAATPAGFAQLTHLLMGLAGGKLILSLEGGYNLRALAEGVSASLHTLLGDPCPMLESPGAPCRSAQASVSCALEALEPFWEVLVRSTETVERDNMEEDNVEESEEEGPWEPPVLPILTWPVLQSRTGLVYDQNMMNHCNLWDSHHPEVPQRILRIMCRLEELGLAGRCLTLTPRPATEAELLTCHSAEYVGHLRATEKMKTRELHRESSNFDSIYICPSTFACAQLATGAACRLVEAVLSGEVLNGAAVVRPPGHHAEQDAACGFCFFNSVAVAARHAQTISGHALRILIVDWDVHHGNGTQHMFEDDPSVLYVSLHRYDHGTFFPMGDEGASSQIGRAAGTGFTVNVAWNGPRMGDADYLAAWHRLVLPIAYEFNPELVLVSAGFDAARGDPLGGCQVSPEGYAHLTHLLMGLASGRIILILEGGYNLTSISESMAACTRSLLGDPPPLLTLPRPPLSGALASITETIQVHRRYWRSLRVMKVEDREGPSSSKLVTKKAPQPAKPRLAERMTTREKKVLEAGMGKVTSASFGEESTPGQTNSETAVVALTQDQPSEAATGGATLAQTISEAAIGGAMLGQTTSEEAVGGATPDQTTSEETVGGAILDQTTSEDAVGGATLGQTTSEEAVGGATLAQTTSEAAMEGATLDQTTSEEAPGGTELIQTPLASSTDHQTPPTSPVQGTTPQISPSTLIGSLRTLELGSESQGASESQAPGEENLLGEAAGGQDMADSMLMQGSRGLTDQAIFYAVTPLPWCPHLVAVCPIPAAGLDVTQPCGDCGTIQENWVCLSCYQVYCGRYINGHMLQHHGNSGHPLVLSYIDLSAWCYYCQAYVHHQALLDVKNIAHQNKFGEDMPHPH

[3] = biological target: T3, Histone deacetylase 8 (Homo sapiens) (UniProt Q9BY41); assay: Induction of HDAC8 degradation in human HCT-116 cells at 5 uM measured at 24 hrs by Western blot analysis
T3 sequence (whole entry): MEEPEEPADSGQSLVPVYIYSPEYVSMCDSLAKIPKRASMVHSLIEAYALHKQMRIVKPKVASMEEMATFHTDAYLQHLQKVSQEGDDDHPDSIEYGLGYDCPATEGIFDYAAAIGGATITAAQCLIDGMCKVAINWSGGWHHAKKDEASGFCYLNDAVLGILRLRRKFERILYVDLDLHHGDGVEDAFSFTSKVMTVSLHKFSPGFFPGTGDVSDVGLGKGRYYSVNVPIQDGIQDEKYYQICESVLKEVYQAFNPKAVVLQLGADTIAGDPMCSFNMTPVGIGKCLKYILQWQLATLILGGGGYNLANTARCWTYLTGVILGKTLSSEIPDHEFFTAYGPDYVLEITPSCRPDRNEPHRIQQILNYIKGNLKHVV

[4] = biological target: T1, Protein cereblon/Histone deacetylase 8 (Homo sapiens); assay: PROTAC activity at HDAC8/CRBN in human HCT-116 cells assessed as degradation of HDAC8 at 5 uM measured after 10 hrs in presence of BRD73954 by Western blot analysis
[5] = biological target: Histone deacetylase 1 (Homo sapiens) (UniProt Q13547); assay: Induction of HDAC1 degradation in human HCT-116 cells at 0.1 to 160 uM measured after 10 hrs by Western blot analysis; conditions: dose 0.1-160 µM
Chain of Histone deacetylase 1 (Homo sapiens) (Q13547 whole entry): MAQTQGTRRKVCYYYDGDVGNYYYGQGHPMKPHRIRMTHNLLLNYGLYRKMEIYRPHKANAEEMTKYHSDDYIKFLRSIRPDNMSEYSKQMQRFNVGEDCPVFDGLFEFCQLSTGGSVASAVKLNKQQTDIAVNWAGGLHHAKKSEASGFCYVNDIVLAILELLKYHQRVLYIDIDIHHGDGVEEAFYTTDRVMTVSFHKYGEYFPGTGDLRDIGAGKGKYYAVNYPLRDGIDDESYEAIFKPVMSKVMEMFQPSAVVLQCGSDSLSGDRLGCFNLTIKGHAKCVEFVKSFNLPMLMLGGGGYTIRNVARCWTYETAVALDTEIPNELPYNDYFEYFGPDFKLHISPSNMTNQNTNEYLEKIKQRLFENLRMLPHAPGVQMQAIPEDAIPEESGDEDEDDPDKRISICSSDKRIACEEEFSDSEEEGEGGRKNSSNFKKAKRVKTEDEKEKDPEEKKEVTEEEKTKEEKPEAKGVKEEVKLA

[6] = biological target: T3, Histone deacetylase 8 (Homo sapiens); assay: Induction of HDAC8 degradation in human HCT-116 cells assessed as hook effect measured at > 40 uM for 10 hrs by Western blot analysis
[7] = biological target: T4, Protein deacetylase HDAC6 (Homo sapiens, UniProt Q9UBN7); assay: Induction of HDAC6 degradation in human HCT-116 cells measured after 10 hrs by Western blot analysis
T4 sequence (Q9UBN7 whole entry): T2 sequence (whole entry)

[8] = biological target: Histone deacetylase 3 (Homo sapiens) (UniProt O15379); assay: Induction of HDAC3 degradation in human HCT-116 cells at 0.1 to 160 uM measured after 10 hrs by Western blot analysis; conditions: dose 0.1-160 µM
Chain of Histone deacetylase 3 (Homo sapiens) (O15379 whole entry): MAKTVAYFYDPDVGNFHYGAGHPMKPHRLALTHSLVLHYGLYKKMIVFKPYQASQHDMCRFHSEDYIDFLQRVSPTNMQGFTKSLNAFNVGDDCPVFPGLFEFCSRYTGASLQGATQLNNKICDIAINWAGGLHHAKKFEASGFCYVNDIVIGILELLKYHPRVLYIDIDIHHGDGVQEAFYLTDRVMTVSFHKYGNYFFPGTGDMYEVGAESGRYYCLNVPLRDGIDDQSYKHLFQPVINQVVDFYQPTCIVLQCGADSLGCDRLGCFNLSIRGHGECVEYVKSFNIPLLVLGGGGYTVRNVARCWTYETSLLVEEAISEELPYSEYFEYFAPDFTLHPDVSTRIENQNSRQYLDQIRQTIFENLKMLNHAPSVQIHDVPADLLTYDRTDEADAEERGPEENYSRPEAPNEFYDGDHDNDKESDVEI

[9] = biological target: T1, Protein cereblon/Histone deacetylase 8 (Homo sapiens); assay: PROTAC activity at HDAC8/CRBN in human HCT-116 cells assessed as degradation of HDAC8 at 5 uM measured after 10 hrs in presence of bafilomycin Al by Western blot analysis
[10] = biological target: T3, Histone deacetylase 8 (Homo sapiens); assay: Induction of HDAC8 degradation in human HCT-116 cells at 5 uM measured at 2 hrs by Western blot analysis
[11] = biological target: T1, Protein cereblon/Histone deacetylase 8 (Homo sapiens); assay: PROTAC activity at HDAC8/CRBN in human HCT-116 cells assessed as degradation of HDAC8 at 5 uM measured after 10 hrs in presence of MG132 by Western blot analysis
[12] = biological target: T3, Histone deacetylase 8 (Homo sapiens); assay: Induction of HDAC8 degradation in human HCT-116 cells assessed as increase in SMC3 acetylation level measured after 10 hrs by Western blot analysis; conditions: dose 0.1-160 µM
[13] = biological target: T3, Histone deacetylase 8 (Homo sapiens); assay: Induction of HDAC8 degradation in human HCT-116 cells assessed as maximum degradation at 5 uM measured at 10 hrs by Western blot analysis
[14] = biological target: T1, Protein cereblon/Histone deacetylase 8 (Homo sapiens); assay: PROTAC activity at HDAC8/CRBN in human HCT-116 cells assessed as degradation of HDAC8 at 5 uM measured after 10 hrs in presence of E3 ligase inhibitor by Western blot analysis
[15] = biological target: T3, Histone deacetylase 8 (Homo sapiens); assay: Induction of HDAC8 degradation in human HCT-116 cells at 5 uM by Western blot analysis relative to control
[16] = biological target: T3, Histone deacetylase 8 (Homo sapiens); assay: Induction of HDAC8 degradation in human HCT-116 cells assessed as maximum degradation at 0.1 to 160 uM measured after 10 hrs by Western blot analysis relative to control; conditions: dose 0.1-160 µM

What does the source list for `O=C(CCCCOc1ccc(CCNC(=O)c2cccc(C(=O)NO)c2)cc1)NCCCCCCNc1cccc2c1C(=O)N(C1CCC(=O)NC1=O)C2=O` (stereo unspecified)?
Activity [1]: inactive; Activity [2]: Dose-Dependent Effect; Activity [3]: Active; Activity [4]: inactive; Activity [5]: inactive; Activity [6]: Active; DC50 [7]: 4.95 µM; Activity [8]: inactive; Activity [9]: Active; Activity [10]: Active; Activity [11]: inactive; Activity [12]: Dose-Dependent Effect; Activity [13]: Active; Activity [14]: inactive; Activity [15]: 85%; Emax [16]: 93%
